Data reported in patent US9447039B2, “Indole carboxamide derivatives and uses thereof” (priority 2012, dated 2016).
In brackets after ≈: the same amount, converted by molar mass.

Tested on: Mycobacterium tuberculosis H37Rv (ATCC #27294)
Experiment: Minimum Inhibitory Concentration (MIC50) determination
Format: cell-based
Details: 120 h
Method: Mycobacterium tuberculosis H37Rv (ATCC #27294) (Mtb) strain was maintained in Middlebrook 7H9 broth medium supplemented with 0.05% Tween 80 and 10% ADS supplement. ADS supplement contains 5% bovine serum albumin fraction V. 2% D-dextrose and 0.8% of sodium chloride. Middlebrook 7H11 agar medium supplemented with 10% OADC (oleic acid, albumin, dextrose and catalase) was used as solid media for growing Mtb. Stock solutions of the compounds were prepared using 90% DMSO.
Minimum Inhibitory Concentration (MIC50) Determination
In Table 5 below, MIC50 is defined as the lowest concentration of the compound that inhibited 50% growth of the wild type strain compared to untreated controls. Test compounds were two or three fold serially diluted in duplicates and spotted by mosquito HTS to 384-well clear plates, resulting in 10 dilutions of each compound. A volume of 50 μl of Mtb culture (final OD600 of 0.02) was added to each well, and the assay plates were incubated at 37° C. for 5 days. Growth of bacteria was measured by reading absorbance at 600 nm using a Spectramax M2 spectrophotometer. MIC50 values were determined by using Activity Base software.

Structure (SMILES)	MIC50
Cc1cc(C)c2cc(C(=O)Nc3ccc(F)cc3)[nH]c2c1 [Example 3C, N-(4-Fluorophenyl)-4,6-dimethyl-1H-indole-2-carboxamide]	2.45 µM (≈ 0.692 µg/mL)
CC1CCC(NC(=O)c2cc3c(Cl)cccc3[nH]2)CC1 (stereo not shown) [Example 4Y, 4-Chloro-N-(4-methylcyclohexyl)-1H-indole-2-carboxamide]	0.22 µM (≈ 0.064 µg/mL)
Cc1cc(Br)cc2[nH]c(C(=O)N[C@@H]3CCCC[C@@H]3C)cc12 [Example 4AH, 6-Bromo-4-methyl-N-((1R,2S)-2-methylcyclohexyl)-1H-indole-2-carboxamide]	0.01 µM (≈ 0.00349 µg/mL)
C[C@H]1CCCC[C@H]1NC(=O)c1cc2c(Cl)cc(Cl)cc2[nH]1 [Example 4J, 4,6-Dichloro-N-((1R,2S)-2-methylcyclohexyl)-1H-indole-2-carboxamide]	0.035 µM (≈ 0.0114 µg/mL)
C[C@H]1CCCC[C@H]1NC(=O)c1cc2c(C(F)(F)F)cc(C(F)(F)F)cc2[nH]1 [Example 4BC, N-((1R,2S)-2-Methylcyclohexyl)-4,6-bis(trifluoromethyl)-1H-indole-2-carboxamide]	1.6 µM (≈ 0.628 µg/mL)
Cc1ccc(NC(=O)c2cc3c(C)cc(C)cc3[nH]2)cc1 [Example 3K, 4,6-Dimethyl-N-(p-tolyl)-1H-indole-2-carboxamide]	5.64 µM (≈ 1.57 µg/mL)
Cc1cc(C#N)c2cc(C(=O)N[C@@H]3CCCC[C@@H]3C)[nH]c2c1 [Example 4AK, 4-Cyano-6-methyl-N-((1R,2S)-2-methylcyclohexyl)-1H-indole-2-carboxamide]	0.02 µM (≈ 0.00591 µg/mL)
CC1CCC(NC(=O)c2cc3c(Cl)cc(F)cc3[nH]2)CC1 (stereo not shown) [Example 4AT, 4-Chloro-6-fluoro-N-(4-methylcyclohexyl)-1H-indole-2-carboxamide]	0.165 µM (≈ 0.0509 µg/mL)
CC1CCC(NC(=O)c2cc3ccc(Cl)c(Cl)c3[nH]2)CC1 (stereo not shown) [Example 4W, 6,7-Dichloro-N-(4-methylcyclohexyl)-1H-indole-2-carboxamide]	0.72 µM (≈ 0.234 µg/mL)
C#CC1CCCCC1NC(=O)c1cc2c(Cl)cc(Cl)cc2[nH]1 (stereo not shown) [Example 4BE, 4,6-Dichloro-N-(2-ethynylcyclohexyl)-1H-indole-2-carboxamide]	0.22 µM (≈ 0.0738 µg/mL)
O=C(NC1CCC(CO)CC1)c1cc2c(Cl)cc(Cl)cc2[nH]1 (stereo not shown) [Example 4AX, 4,6-Dichloro-N-(4-(hydroxymethyl)-cyclohexyl)-1H-indole-2-carboxamide]	13.5 µM (≈ 4.6 µg/mL)
COC1CCCCC1NC(=O)c1cc2c(C)cc(C)cc2[nH]1 (stereo not shown) [Example 4N, N-(2-Methoxycyclohexyl)-4,6-dimethyl-1H-indole-2-carboxamide]	5.78 µM (≈ 1.74 µg/mL)
Cc1cc(C)c2cc(C(=O)NC3CCCCC3C)[nH]c2c1 (stereo not shown) [Example 3H, 4,6-Dimethyl-N-(2-methylcyclohexyl)-1H-indole-2-carboxamide]	0.32 µM (≈ 0.091 µg/mL)
COCC1CCC(NC(=O)c2cc3c(Cl)cc(Cl)cc3[nH]2)CC1 (stereo not shown) [Example 8A, 4,6-Dichloro-N-(4-(methoxymethyl)cyclohexyl)-1H-indole-2-carboxamide]	1.51 µM (≈ 0.536 µg/mL)
O=C(NC1CCC(F)(F)CC1)c1cc2c(Cl)cc(Cl)cc2[nH]1 [Example 4P, 4,6-Dichloro-N-(4,4-difluorocyclohexyl)-1H-indole-2-carboxamide]	0.565 µM (≈ 0.196 µg/mL)
C[C@H]1CCCC[C@H]1NC(=O)c1cc2c(F)cc(F)cc2[nH]1 [Example 4BA, 4,6-Difluoro-N-((1R,2S)-2-methylcyclohexyl)-1H-indole-2-carboxamide]	0.28 µM (≈ 0.0819 µg/mL)
C[C@H]1CCCC[C@H]1NC(=O)c1cc2c(Br)cccc2[nH]1 [Example 4AB, 4-Bromo-N-((1R,2S)-2-methylcyclohexyl)-1H-indole-2-carboxamide]	0.29 µM (≈ 0.0972 µg/mL)
CC1(C)CCC(NC(=O)c2cc3c(Cl)cc(Cl)cc3[nH]2)CC1 [Example 1A, 4,6-dichloro-N-(4,4-dimethylcyclohexyl)-1H-indole-2-carboxamide]	0.015 µM (≈ 0.00509 µg/mL)
Cc1cc(N2CCCCC2)cc2[nH]c(C(=O)N[C@@H]3CCCC[C@@H]3C)cc12 [Example 6C, 4-Methyl-N-((1R,2S)-2-methylcyclohexyl)-6-(piperidin-1-yl)-1H-indole-2-carboxamide]	5.12 µM (≈ 1.81 µg/mL)
